# Measurements as given in patent US20240167075A1, “METHODS FOR ASSAYING ENZYME ACTIVITY” (Regeneron Pharmaceuticals, Inc., priority 2022, published 2024).
# Entries after “also recorded” stand apart in the source; their conditions may differ.
# Assays:
# Type in all cases: biochemical
# [1] = test system: β4GALT1; test: commercial Phosphate Glycosyltransferase Activity kit (R&D Systems), malachite green phosphate detection; conditions: UDP-Gal glycosyl donor, coupling phosphatase; FIG. 4
# Excerpt: The commercial Phosphate Glycosyltransferase Activity kit was purchased from R&D Systems. The principle of the assay along with the materials provided were utilized according to manufacturer's conditions. In brief, a diphosphonucleotide sugar (such as UDP-Gal) is used as a glycosyl donor and mixed with a glycosyl acceptor, a phosphatase, and a glycosyltransferase. Glycosyltransferase activity exposes a phosphate of the glycosyl donor to phosphatase activity, releasing free phosphate. The amount of phosphate present should be directly proportional to the amount of formed glycosylated product. The kit also uses a specific phosphatase to remove an inorganic phosphate quantitatively from UDP. The released inorganic phosphate is subsequently quantitated by sensitive colorimetric malachite green phosphate detecting reagents. The amount of inorganic phosphate released by the coupling phosphatase should be equal to the nucleotide sugar consumed or glycoconjugate product generated. Therefore, the rate of inorganic phosphate products should reflect the kinetics of a glycosyltransferase reaction (specific activity of the enzyme). The steps as performed are outlined in FIG. 3.
# To estimate the amount of UDP produced in the enzymatic reaction, a phosphate standard curve was established according to manufacturer's conditions. […]
# [2] = test system: β4GALT1; test: HILIC-UV/MS based assay of β4GALT1 activity (method of Montasser et al.)
# Excerpt: Montasser et al. attempted to assay enzyme activity using a method involving quantification of the β4GALT1 substrate UDP-Gal, by measuring its peak area using hydrophilic interaction chromatography-ultraviolet detection-mass spectroscopy. The method as outlined in Montasser et al. was followed, using HILIC-UV-MS to quantitate the decrease of UDP-Gal as a measure of β4GALT1 activity. In particular, the decrease of UDP-Gal could be measured using UV detection and the corresponding increase of GlcNAc-Gal could be measured using MS.
# The glycosyl donor was 1.7 nmol UDP-Gal; the glycosyltransferase was 1.1 pmol β4GALT1; and the glycosyl acceptor was 500 nmol GlcNAc. All samples were analyzed using an Acquity UPLC I-Class coupled with Vion IMS Q-Tof (Waters, Milford, MA, USA). A Waters Acquity UPLC Glycoprotein BEH Amide chromatographic column (300 Å, 150 mm×2.1 mm, 1.7 μm) was used to separate the analytes with a column temperature of 45° C. and a flow rate of 0.2 mL/minute. Mobile phase A was 50 mM ammonium acetate at a pH 7.5, and mobile phase B was 5% (v/v) 25 mM ammonium acetate at a pH 7.5 in acetonitrile. A 1 μL aliquot of each mixture (wildtype and mutant β4GALT1) was injected for analysis.
# The difference in activity between the wildtype and mutant β4GALT1 was tested using paired two-sided Student's t-test.
# [3] = test system: β4GALT1; test: HILIC-FLR-MS based assay of β4GALT1 activity with 2-AB-G0F labeling substrate; conditions: 1.1 pmol B4GALT1, 1.7 nmol UDP-Gal, 10 pmol 2-AB-G0F, room temperature, 0 to 60 minutes; FIG. 8, 12, 13
# Protocol: Specifically, the enzymatic activities were measured using uridine diphosphate galactose (UDP-Gal) as a donor substrate and a labeled glycan (2-AB-G0F) as the labeling substrate. The experiment was carried out over eight different time points.
# The enzymatic reaction was initiated by adding 1.1 pmol of B4GALT1 into a mixture of 1.7 nmol UDP-Gal (the glycosyl donor) and 10 pmol of 2-AB-G0F (the glycosyl acceptor), and the mixture was incubated at room temperature for 2, 5, 10, 15, 25, 40, and 60 minutes. The sample representing the initial time point (0 min) was prepared by omitting the enzyme. This HILIC-FLR-MS based method was used to quantitate both the decrease of UDP-Gal and the increase in formation of the products (G1F/G2F).
# All samples were analyzed using an Acquity UPLC I-Class coupled with Vion IMS Q-Tof (Waters, Milford, MA, USA). A Waters Acquity UPLC Glycoprotein BEH Amide chromatographic column (300 Å, 150 mm×2.1 mm, 1.7 μm) was used to separate the analytes with a column temperature of 60° C. and a flow rate of 0.5 mL/minute. Mobile phase A was 50 mM ammonium acetate at a pH 4.4, and mobile phase B was acetonitrile. A 5 μL aliquot of each mixture was injected onto the column for HILIC-MS analysis. The sample run time was 12 minutes.
# The samples were monitored using a UV detector at a wavelength of 280 nm and fluorescence with excitation at a wavelength of 330 nm and emission at a wavelength of 420 nm. The Waters Vion IMS Q-Tof mass spectrometer was operated in positive mode and the mass spectra were acquired with a m/z range between 600 and 2000. UDP-Gal was quantitated and the data were collected and processed using UNIFI software (Waters).
Molecule,specific activity (enzyme activity) determined using a commercial kit [1],"decrease in UDP-Gal (UV peak area) ([2]; 1.7 nmol UDP-Gal, 1.1 pmol β4GALT1, 500 nmol GlcNAc, 2, 5, 10, 15, 25, 40, and 60 minutes, FIG. 5)","increase in the amounts of the product (GlcNAc-Gal) over time, MS ([2]; 2, 5, 10, 15, 25, 40, and 60 minutes, FIG. 6)","activity suggested by decrease in UDP-Gal ([2]; wildtype compared to mutant, FIG. 5)",fluorescent signal for 2-AB-G0F (labeling substrate) over time [3],signal for the products 2-AB-G1F and 2-AB-G2F over time [3]
"Beta-1,4-galactosyltransferase 1 [wildtype β4GALT1]",less active than β4GALT1 with N352S mutation,significantly more,significantly more,higher activity,reduction in the signal; also recorded: declines substantially over time,increase substantially over time
"β4GALT1 with N352S mutation: missense variant (rs551564683, p.Asn352Ser) in β4GALT1 (protein, UniProt P15291 1-398, looked up, variant N352S) MRLREPLLSGSAAMPGASLQRACRLLVAVCALHLGVTLVYYLAGRDLSRLPQLVGVSTPLQGGSNSAAAIGQSSGELRTGGARPPPPLGASSQPRPGGDSSPVVDSGPGPASNLTSVPVPHTTALSLPACPEESPLLVGPMLIEFNMPVDLELVAKQNPNVKMGGRYAPRDCVSPHKVAIIIPFRNRQEHLKYWLYYLHPVLQRQQLDYGIYVINQAGDTIFNRAKLLNVGFQEALKDYDYTCFVFSDVDLIPMNDHNAYRCFSQPRHISVAMDKFGFSLPYVQYFGGVSALSKQQFLTINGFPNNYWGWGGEDDDIFNRLVFRGMSISRPNAVVGRCRMIRHSRDKKNEPSPQRFDRIAHTKETMLSDGLNSLTYQVLDVQRYPLYTQITVDIGTPS",,,,,less so,less so
